# Source: the supplement of paper PMC10307832
# Key:
# Assay in all cases: relative viability (nuclei count vs DMSO), 5 days (fraction); higher = more cells survive
# [1] = test system: NCI-H3122
# Summary of the method: (§1)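 Lung cancer cell lines were seeded in 1536-well plates and dosed by pin tool the next day, with either a single drug or a fixed anchor-drug dose combined with five library-drug doses (not always all listed) spaced in √10 steps. Five days later, one step fixed the cells and stained their nuclei (final 0.05% Triton X-100, 1% formaldehyde, 1 ug/ml Hoechst), and nuclei were counted on 4× images. Relative viability is the nuclei count in treated wells divided by the count in vehicle wells, and each value is the median of duplicate plates.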
# [2] = test system: HCC-827
# Summary of the method: as §1
# [3] = test system: NCI-H1734
# Summary of the method: as §1
# [4] = test system: NCI-H1944
# Summary of the method: as §1
# [5] = test system: HCC-15
# Summary of the method: as §1
# [6] = test system: NCI-H2023
# Summary of the method: as §1
# [7] = test system: ABC-1
# Summary of the method: as §1
# [8] = test system: NCI-H2228
# Summary of the method: as §1
# [9] = test system: HCC-44
# Summary of the method: as §1
# [10] = test system: ChaGo-K-1
# Summary of the method: as §1
# [11] = test system: SW 1573
# Summary of the method: as §1
smiles,measurement,setting,value
Cc1csc(=NC2CCCCC2)n1/N=C/c1ccc(O)c(O)c1O [MIM1] + O=C(c1cc(Cc2n[nH]c(=O)c3ccccc23)ccc1F)N1CCN(C(=O)C2CC2)CC1 [Olaparib] (partner 8 µM),relative viability,[1]; first compound 0.2 µM,0.626
same,relative viability,[1]; first compound 0.6325 µM,0.643
same,relative viability,[1]; first compound 2 µM,0.618
same,relative viability,[1]; first compound 6.325 µM,0.325
same,relative viability,[1]; first compound 20 µM,0.113
same,relative viability,[2]; first compound 0.2 µM,0.653
same,relative viability,[2]; first compound 0.6325 µM,0.626
same,relative viability,[2]; first compound 2 µM,0.639
same,relative viability,[2]; first compound 6.325 µM,0.37
same,relative viability,[2]; first compound 20 µM,0.241
same,relative viability,[3]; first compound 0.2 µM,0.58
same,relative viability,[3]; first compound 0.6325 µM,0.632
same,relative viability,[3]; first compound 2 µM,0.559
same,relative viability,[3]; first compound 6.325 µM,0.496
same,relative viability,[3]; first compound 20 µM,0.132
same,relative viability,[4]; first compound 0.2 µM,0.405
same,relative viability,[4]; first compound 0.6325 µM,0.422
same,relative viability,[4]; first compound 2 µM,0.352
same,relative viability,[4]; first compound 6.325 µM,0.32
same,relative viability,[4]; first compound 20 µM,0.131
same,relative viability,[5]; first compound 0.2 µM,0.717
same,relative viability,[5]; first compound 0.6325 µM,0.713
same,relative viability,[5]; first compound 2 µM,0.749
same,relative viability,[5]; first compound 6.325 µM,0.39
same,relative viability,[5]; first compound 20 µM,0.115
same,relative viability,[6]; first compound 0.2 µM,0.501
same,relative viability,[6]; first compound 0.6325 µM,0.496
same,relative viability,[6]; first compound 2 µM,0.43
same,relative viability,[6]; first compound 6.325 µM,0.255
same,relative viability,[6]; first compound 20 µM,0.0641
same,relative viability,[7]; first compound 0.2 µM,0.952
same,relative viability,[7]; first compound 0.6325 µM,1.27
same,relative viability,[7]; first compound 2 µM,1.03
same,relative viability,[7]; first compound 6.325 µM,0.78
same,relative viability,[7]; first compound 20 µM,0.388
same,relative viability,[8]; first compound 0.2 µM,0.719
same,relative viability,[8]; first compound 0.6325 µM,0.719
same,relative viability,[8]; first compound 2 µM,0.861
same,relative viability,[8]; first compound 6.325 µM,0.227
same,relative viability,[8]; first compound 20 µM,0.192
same,relative viability,[9]; first compound 0.2 µM,1.02
same,relative viability,[9]; first compound 0.6325 µM,0.975
same,relative viability,[9]; first compound 2 µM,0.859
same,relative viability,[9]; first compound 6.325 µM,0.675
same,relative viability,[9]; first compound 20 µM,0.455
same,relative viability,[10]; first compound 0.2 µM,0.399
same,relative viability,[10]; first compound 0.6325 µM,0.346
same,relative viability,[10]; first compound 2 µM,0.385
same,relative viability,[10]; first compound 6.325 µM,0.214
same,relative viability,[10]; first compound 20 µM,0.127
same,relative viability,[11]; first compound 0.2 µM,0.515
same,relative viability,[11]; first compound 0.6325 µM,0.471
same,relative viability,[11]; first compound 2 µM,0.608
same,relative viability,[11]; first compound 6.325 µM,0.321
